From patent US20100056508A1, “AMINE DERIVATIVES AND THEIR USE IN BETA-2-ADRENORECEPTOR MEDIATED DISEASES” (ASTRAZENECA AB, priority 2006, published 2010) come the findings set out here.

In assay [1] the target is T1, recombinant human Dopamine Subtype D2s receptors (Homo sapiens, UniProt P14416).
T1 construct: purchased Perkin Elmer
Description: Dopamine D2 selectivity assay, [3H]-spiperone binding to membranes. The conditions noted are these: inhibition of [3H]-spiperone binding, read-out: D2 bind pIC50 (converted). As for the experimental part: Membranes containing recombinant human Dopamine Subtype D2s receptors were obtained from Perkin Elmer. These were diluted in Assay Buffer (50 mM HEPES, 1 mM EDTA, 120 mM NaCl, 0.1% gelatin, pH 7.4) to provide a final concentration of membranes that gave a clear window between maximum and minimum specific binding.
(§1) Assays were performed in U-bottomed 96-well polypropylene plates. 30 μL [^3H]-spiperone (0.16 nM final concentration) and 30 μL of test compound (10× final concentration) were added to each test well. For each assay plate 8 replicates were obtained for [^3H]-spiperone binding in the presence of 30 μL vehicle (10% (v/v) DMSO in Assay Buffer; defining maximum binding) or 30 μL Haloperidol (10 μM final concentration; defining non-specific binding (NSB)). Membranes were then added to achieve a final volume of 300 μL. The plates were incubated for 2 hours at room temperature and then filtered onto PEI coated GF/B filter plates, pre-soaked for 1 hour in Assay Buffer, using a 96-well plate Tomtec cell harvester. Five washes with 250 μL wash buffer (50 mM HEPES, 1 mM EDTA, 120 mM NaCl, pH 7.4) were performed at 4° C. to remove unbound radioactivity. The plates were dried then sealed from underneath using Packard plate sealers and MicroScint-0 (50 μL) was added to each well. The plates were sealed (TopSeal A) and filter-bound radioactivity was measured with a scintillation counter (TopCount, Packard BioScience) using a 3-minute counting protocol.
Total specific binding (B0) was determined by subtracting the mean NSB from the mean maximum binding. NSB values were also subtracted from values from all other wells. […] Data was fitted to a four parameter logistic equation to determine the compound potency, which was expressed as pIC50 (negative log molar concentration inducing 50% inhibition of [^3H]-spiperone binding).

In assay [2] the target is T2, recombinant human adrenergic beta 1 receptors (Homo sapiens, UniProt P08588).
T2 construct: purchased Euroscreen
T2 sequence (P08588 whole entry): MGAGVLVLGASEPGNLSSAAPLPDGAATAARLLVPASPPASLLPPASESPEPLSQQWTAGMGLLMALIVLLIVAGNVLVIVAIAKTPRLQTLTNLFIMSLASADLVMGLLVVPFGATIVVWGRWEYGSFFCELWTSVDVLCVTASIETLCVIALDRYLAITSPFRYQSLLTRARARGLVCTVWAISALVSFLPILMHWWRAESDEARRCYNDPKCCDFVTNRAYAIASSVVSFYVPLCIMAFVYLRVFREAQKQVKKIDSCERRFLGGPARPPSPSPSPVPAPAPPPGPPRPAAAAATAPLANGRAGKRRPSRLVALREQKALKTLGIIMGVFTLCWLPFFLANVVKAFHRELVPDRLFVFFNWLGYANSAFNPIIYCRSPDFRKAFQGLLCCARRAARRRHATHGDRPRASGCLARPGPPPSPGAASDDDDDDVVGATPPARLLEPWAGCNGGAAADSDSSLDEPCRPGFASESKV
As to the kind of experiment: Adrenergic β1 selectivity assay, [125I]-Iodocyanopindolol binding to membranes. The conditions noted are these: inhibition of [125I]-Iodocyanopindolol binding, read-out: β1 bind pIC50 (converted). As for the experimental part: Membranes containing recombinant human adrenergic beta 1 receptors were obtained from Euroscreen. These were diluted in Assay Buffer (50 mM HEPES, 1 mM EDTA, 120 mM NaCl, 0.1% gelatin, pH 7.4) to provide a final concentration of membranes that gave a clear window between maximum and minimum specific binding.
as §1, with “10” for “30”, “[^125I]-Iodocyanopindolol (0.036” for “[^3H]-spiperone (0.16”, “[^125I]-Iodocyanopindolol” for “[^3H]-spiperone”, “Propranolol” for “Haloperidol”, “100” for “300”, “MicroScint-O” for “MicroScint-0”
Total specific binding (B0) was determined by subtracting the mean NSB from the mean maximum binding. NSB values were also subtracted from values from all other wells. […] Data was fitted to a four parameter logistic equation to determine the compound potency, which was expressed as pIC50 (negative log molar concentration inducing 50% inhibition of [^125I]-Iodocyanopindolol binding).

T1 sequence (P14416 1-414 isoform P14416-2): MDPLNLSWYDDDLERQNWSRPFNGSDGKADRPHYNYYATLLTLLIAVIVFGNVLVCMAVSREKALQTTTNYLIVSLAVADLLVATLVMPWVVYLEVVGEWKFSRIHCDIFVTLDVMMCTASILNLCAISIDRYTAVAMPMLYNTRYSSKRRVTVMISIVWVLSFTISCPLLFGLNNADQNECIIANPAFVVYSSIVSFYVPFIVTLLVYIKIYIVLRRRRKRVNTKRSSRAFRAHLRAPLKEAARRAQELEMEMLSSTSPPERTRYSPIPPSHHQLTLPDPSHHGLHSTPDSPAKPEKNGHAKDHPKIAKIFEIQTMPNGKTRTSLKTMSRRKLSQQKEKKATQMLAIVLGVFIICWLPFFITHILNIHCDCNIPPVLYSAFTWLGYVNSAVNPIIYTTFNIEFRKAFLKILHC

Consider `O=C(CCOCCc1ccccc1)N(CCNCCc1ccc(O)c2[nH]c(=O)ccc12)C1CCCCC1` [Example 2, N-Cyclohexyl-N-(2-(2-(8-hydroxy-2-oxo-1,2-dihydroquinolin-5-yl)ethylamino)ethyl)-3-phenethoxypropanamide], for which the IC50 in assay [1] was more than 6310 nM; in assay [2], more than 6.31 µM.

Take `O=C(CCNCCc1cccc(Cl)c1)N(CCNCCc1ccc(O)c2[nH]c(=O)ccc12)C1CCCCCC1` [Example 3, 3-(3-Chlorophenethylamino)-N-cycloheptyl-N-(2-(2-(8-hydroxy-2-oxo-1,2-dihydroquinolin-5-yl)ethylamino)ethyl)propanamide bis(trifluoroacetate)]: the IC50 in assay [1] is 200 nM; in assay [2], 1.26 µM.

Take `O=C(CCNCCc1ccc(Cl)cc1)N(CCNCCc1ccc(O)c2[nH]c(=O)ccc12)C1CCCCCC1` [Example 4, 3-(4-Chlorophenethylamino)-N-cycloheptyl-N-(2-(2-(8-hydroxy-2-oxo-1,2-dihydroquinolin-5-yl)ethylamino)ethyl)propanamide bis(trifluoroacetate)]: the IC50 was 79.4 nM in assay [1] and 3.16 µM in assay [2].

Regarding `CCOc1cccc(CCNCCC(=O)N(CCNCCc2ccc(O)c3[nH]c(=O)ccc23)C2CCCCCC2)c1` [Example 11, N-Cycloheptyl-3-(3-ethoxyphenethylamino)-N-(2-(2-(8-hydroxy-2-oxo-1,2-dihydroquinolin-5-yl)ethylamino)ethyl)propanamide bis(trifluoroacetate)], the figures for the IC50 in assay [1] and in assay [2] were 501 nM and more than 10 µM, respectively.

Turning to `O=C(CCNCCc1cccc(Cl)c1)N(CCNCCc1ccc(O)c2[nH]c(=O)ccc12)C1CCCCC1` [Example 13, 3-(3-Chlorophenethylamino)-N-cyclohexyl-N-(2-(2-(8-hydroxy-2-oxo-1,2-dihydroquinolin-5-yl)ethylamino)ethyl)propanamide bis(trifluoroacetate)], the IC50 was 50.1 nM in assay [1] and more than 10 µM in assay [2].

`O=C(CCNCCc1ccc(Cl)cc1)N(CCNCCc1ccc(O)c2[nH]c(=O)ccc12)C1CCCCC1` [Example 14, 3-(4-Chlorophenethylamino)-N-cyclohexyl-N-(2-(2-(8-hydroxy-2-oxo-1,2-dihydroquinolin-5-yl)ethylamino)ethyl)propanamide bis(trifluoroacetate)]: the IC50 in assay [1] is 251 nM; in assay [2] it was more than 10 µM.

For the compound `O=C(CCNCCc1cc(F)cc(F)c1)N(CCNCCc1ccc(O)c2[nH]c(=O)ccc12)C1CCCCC1` [Example 15, N-Cyclohexyl-3-(3,5-difluorophenethylamino)-N-(2-(2-(8-hydroxy-2-oxo-1,2-dihydroquinolin-5-yl)ethylamino)ethyl)propanamide bis(trifluoroacetate)], the IC50 in assay [1] is 1260 nM; in assay [2] it was more than 10 µM.

`O=C(CCNCCc1cc(F)ccc1F)N(CCNCCc1ccc(O)c2[nH]c(=O)ccc12)C1CCCCC1` [Example 17, N-Cyclohexyl-3-(2,5-difluorophenethylamino)-N-(2-(2-(8-hydroxy-2-oxo-1,2-dihydroquinolin-5-yl)ethylamino)ethyl)propanamide bis(trifluoroacetate)]: the IC50 in assay [1] was 1260 nM; in assay [2] it was 12.6 µM.

Take `O=C(CCNCCc1cccc(F)c1F)N(CCNCCc1ccc(O)c2[nH]c(=O)ccc12)C1CCCCC1` [Example 18, N-Cyclohexyl-3-(3-difluorophenethylamino)-N-(2-(2-(8-hydroxy-2-oxo-1,2-dihydroquinolin-5-yl)ethylamino)ethyl)propanamide bis(trifluoroacetate)]: the IC50 was 3160 nM in assay [1] and more than 10 µM in assay [2].

In the case of `O=CNc1cc(CCNCCN(C(=O)CCNCCc2ccccc2)C2CCCCC2)ccc1O` [Example 21, N-Cyclohexyl-N-(2-(3-formamido-4-hydroxyphenethylamino)ethyl)-3-(phenethylamino)propanamide], the IC50 is 1260 nM in assay [1] and more than 10 µM in assay [2].

`O=C(CCNCCc1ccccc1)N(CCNCCc1ccc(O)c(O)c1)C1CCCCC1` [Example 22, N-Cyclohexyl-N-(2-(3,4-dihydroxyphenethylamino)ethyl)-3-(phenethylamino)propanamide bis(trifluoroacetate)]: the IC50 is 501 nM in assay [1] and 2.51 µM in assay [2].

Regarding `O=C1COc2c(CCNCCN(C(=O)CCNCCc3ccccc3)C3CCCCC3)ccc(O)c2N1` [Example 23, N-Cyclohexyl-N-(2-(2-(5-hydroxy-3-oxo-3,4-dihydro-2H-benzo[b][1,4]oxazin-8-yl)ethylamino)ethyl)-3-(phenethylamino)propanamide bis(trifluoroacetate)], the IC50 in assay [1] is 316 nM; in assay [2] it was 0.631 µM.

For `O=C1COc2c(CCNCCN(C(=O)CCNCCc3ccccc3)C3CCCCCC3)ccc(O)c2N1` [Example 24, N-Cycloheptyl-N-(2-(2-(5-hydroxy-3-oxo-3,4-dihydro-2H-benzo[b][1,4]oxazin-8-yl)ethylamino)ethyl)-3-(phenethylamino)propanamide bis(trifluoroacetate)], the IC50 is 158 nM in assay [1] and 0.631 µM in assay [2].

Turning to `CCCC[C@@H](C)N(CCNCCc1ccc(O)c2c1OCC(=O)N2)C(=O)CCNCCc1ccccc1` [Example 25, (R)—N-(Hexan-2-yl)-N-(2-(2-(5-hydroxy-3-oxo-3,4-dihydro-2H-benzo[b][1,4]oxazin-8-yl)ethylamino)ethyl)-3-(phenethylamino)propanamide bis(trifluoroacetate)], the figures for the IC50 in assay [1] and in assay [2] were 100 nM and 2.51 µM, respectively.

For `O=C1COc2c(CCNCCN(C(=O)CCNCCc3ccc(Cl)c(Cl)c3)C3CCCCCC3)ccc(O)c2N1` [Example 26, N-Cycloheptyl-3-(3,4-dichlorophenethylamino)-N-(2-(2-(5-hydroxy-3-oxo-3,4-dihydro-2H-benzo[b][1,4]oxazin-8-yl)ethylamino)ethyl)propanamide bis(trifluoroacetate)], the values for the IC50 in assay [1] and in assay [2] were 31.6 nM and 2 µM, respectively.

For `O=C1COc2c(CCNCCN(C(=O)CCNCCc3cccc(Cl)c3)C3CCCCC3)ccc(O)c2N1` [Example 27, 3-(3-Chlorophenethylamino)-N-cyclohexyl-N-(2-(2-(5-hydroxy-3-oxo-3,4-dihydro-2H-benzo[b][1,4]oxazin-8-yl)ethylamino)ethyl)propanamide bis(trifluoroacetate)], the IC50 was 251 nM in assay [1] and 3.16 µM in assay [2].

With `O=C1COc2c(CCNCCN(C(=O)CCNCCc3cccc(Cl)c3Cl)C3CCCCC3)ccc(O)c2N1` [Example 29, N-Cyclohexyl-3-(2,3-dichlorophenethylamino)-N-(2-(2-(5-hydroxy-3-oxo-3,4-dihydro-2H-benzo[b][1,4]oxazin-8-yl)ethylamino)ethyl)propanamide bis(trifluoroacetate)], the IC50 in assay [1] was 100 nM; in assay [2], 3.16 µM.

In the case of `O=C1COc2c(CCNCCN(C(=O)CCNCCc3ccc(Cl)c(Cl)c3)C3CCCCC3)ccc(O)c2N1` [Example 30, N-Cyclohexyl-3-(3,4-dichlorophenethylamino)-N-(2-(2-(5-hydroxy-3-oxo-3,4-dihydro-2H-benzo[b][1,4]oxazin-8-yl)ethylamino)ethyl)propanamide bis(trifluoroacetate)], the figures for the IC50 in assay [1] and in assay [2] were 50.1 nM and 2.51 µM, respectively.

As to `O=C1COc2c(CCNCCN(C(=O)CCNCCc3ccc(Cl)cc3Cl)C3CCCCC3)ccc(O)c2N1` [Example 31, N-Cyclohexyl-3-(2,4-dichlorophenethylamino)-N-(2-(2-(5-hydroxy-3-oxo-3,4-dihydro-2H-benzo[b][1,4]oxazin-8-yl)ethylamino)ethyl)propanamide bis(trifluoroacetate)], the values for the IC50 in assay [1] and in assay [2] were 100 nM and 3.16 µM, respectively.
